Laboratory results reported in ChEMBL document CHEMBL1139218, “Cytotoxic benzo[j]fluoranthene metabolites from Hypoxylon truncatum IFB-18, an endophyte of Artemisia annua” (J Nat Prod, 2007).

Assay: Cytotoxicity against SW1116 cells by MTT colometric method
Type: functional, cell-based
Details: Homo sapiens, SW 1116

`O=C1C[C@H]2[C@@H]3CCC(=O)c4c(O)ccc(c43)[C@]2(O)c2cccc(O)c21` [DALDINONE C] and `CO[C@H]1C[C@H]2[C@@H]3CCC(=O)c4c(O)ccc(c43)[C@]2(O)c2cccc(O)c21` [DALDINONE D] are within 1.5-fold of each other in IC50: 49.5 µM for the first, 41 µM for the second.

For `O=c1[nH]cc(F)c(=O)[nH]1` [FLUOROURACIL], the IC50 was 37 µM.
